For 30 compounds, melting point results are on record in patent US7928119B2, “Use of EP4 receptor ligands in the treatment of IL-6 involved diseases” (Pfizer Inc., priority 2002, dated 2011).

The structures appear in SMILES notation.

As usually defined, the melting point is the temperature, or range, at which the solid turns liquid.

Compound `CCc1nc2cc(C(F)(F)F)c(Cl)cc2n1-c1ccc(CCOC(=O)NS(=O)(=O)c2cn(C)c(C)n2)cc1` [Example 294, 2-{4-[6-CHLORO-2-ETHYL-5-(TRIFLUOROMETHYL)-1H-BENZIMIDAZOL-1-YL]PHENYL}ETHYL-(1,2-DIMETHYL-1H-IMIDAZOL-4-YL)SULFONYLCARBAMATE] yielded a melting point of 221.2 °C.

As to `CCc1nc2cc(N(C)C)c(Cl)cc2n1-c1ccc(CCNC(=O)NS(=O)(=O)c2ccc(C)cc2)cc1`, the melting point is 108 to 114 °C.

As to `CCc1nc2cc(C(F)(F)F)c(Cl)cc2n1-c1ccc(C[C@@H](C)NC(=O)NS(=O)(=O)c2ccc(C)cc2)cc1` [Example 255, N-{[((1R)-2-{4-[6-CHLORO-2-ETHYL-5-(TRIFLUOROMETHYL)-1H-BENZIMIDAZOL-1-YL]PHENYL}-1-METHYLETHYL)AMINO]CARBONYL}-4-METHYLBENZENESULFONAMIDE], the melting point is 138 to 141 °C.

The compound `CCc1nc2c(C#N)cccc2n1-c1ccc(CCNC(=O)NS(=O)(=O)c2ccc(C)cc2)cc1` [Example 321, 4-CYANO-2-ETHYL-1-(4-{2-[({[(4-METHYLPHENYL)SULFONYL]AMINO}CARBONYL)AMINO]ETHYL}PHENYL)-1H-BENZIMIDAZOLE] showed a melting point of 95 to 103 °C.

For `CCc1nc2cc(C(F)(F)F)c(Cl)cc2n1-c1ccc(CCOC(=O)NS(=O)(=O)c2cccc3c(N(C)C)cccc23)cc1`, the melting point is 203.4 °C.

Compound `CCc1nc2c(C)c(C#N)c(C)nc2n1-c1ccc(CCNC(=O)NS(=O)(=O)c2ccc(C)cc2)cc1` [Example 41, 6-CYANO-2-ETHYL-5,7-DIMETHYL-3-(4-{2-[({[(4-METHYLPHENYL)SULFONYL]AMINO}CARBONYL)AMINO]ETHYL}PHENYL)-3H-IMIDAZO[4,5-b]PYRIDINE] showed a melting point of 133 °C.

For the compound `CCc1nc2cc(S(N)(=O)=O)c(Cl)cc2n1-c1ccc(CCNC(=O)NS(=O)(=O)c2ccc(C)cc2)cc1`, the melting point fell in the range of 163 to 170 °C.

`CCc1nc2cc(C(=O)O)c(Cl)cc2n1-c1ccc(CCNC(=O)NS(=O)(=O)c2ccc(C)cc2)cc1` [Example 112, 6-CHLORO-2-ETHYL-1-(4-{2-[({[(4-METHYLPHENYL)SULFONYL]AMINO}CARBONYL)AMINO]ETHYL}PHENYL)-1H-BENZIMIDAZOLE-5-CARBOXYLIC ACID] had a melting point of 145 to 150 °C.

Regarding `CCc1nc2cc(NC)c(Cl)cc2n1-c1ccc(CCNC(=O)NS(=O)(=O)c2ccc(C)cc2)cc1`, the melting point fell in the range of 95 to 100 °C.

`CCc1nc2c(C)cc(C)nc2n1-c1ccc(CC(C)NC(=O)NS(=O)(=O)c2ccc(C)cc2)cc1` (stereo not drawn) gave a melting point of 128 °C.

As for `CCc1nc2c(C(N)=O)cccc2n1-c1ccc(CCNC(=O)NS(=O)(=O)c2ccc(C)cc2)cc1`, the melting point lay in the range of 208 to 214 °C.

For the compound `CCc1nc2cc(C(F)(F)F)c(Cl)cc2n1-c1ccc(CCN(C(=O)O)S(=O)(=O)c2ccc(C)cn2)cc1.Cl.Cl`, the melting point is 200.2 °C.

The compound `CCc1nc2c(C)c(C#N)c(C)cc2n1-c1ccc(CCNC(=O)NS(=O)(=O)c2ccc(C)cc2)cc1` registered a melting point of 140 to 145 °C.

`CCc1nc2c(C)c(NS(C)(=O)=O)cnc2n1-c1ccc(CCNC(=O)NS(=O)(=O)c2ccc(C)cc2)cc1` displayed a melting point of 166 °C.

For the compound `CCc1nc2c(C)cc(C)nc2n1-c1ccc(CCNC(=O)NS(=O)(=O)c2ccncc2)cc1` [Example 274, 2-ETHYL-3-(4-{2-[({[4-PYRIDINYLSULFONYL]AMINO}CARBONYL)AMINO]ETHYL}PHENYL)-5,7-DIMETHYL-3H-IMIDAZO[4,5-b]PYRIDINE], the melting point was 227.9 to 228.7 °C.

On to `CCc1nc2cc(NC(C)=O)c(Cl)cc2n1-c1ccc(CCNC(=O)NS(=O)(=O)c2ccc(C)cc2)cc1`, for which the melting point is 125 to 133 °C.

Compound `CCc1nc2cc(C(F)(F)F)c(Cl)cc2n1-c1ccc(CCOC(=O)NS(=O)(=O)c2cn(C)cn2)cc1` [Example 292, 2-{4-[6-CHLORO-2-ETHYL-5-(TRIFLUOROMETHYL)-1H-BENZIMIDAZOL-1-YL]PHENYL}ETHYL-(1-METHYL-1H-IMIDAZOL-4-YL)SULFONYLCARBAMATE] gave a melting point of 204.3 °C.

For `CC(=O)c1nc2cc(C(F)(F)F)c(Cl)cc2n1-c1ccc(CCNC(=O)NS(=O)(=O)c2ccc(C)cc2)cc1` [Example 368, N-{[(2-{4-[2-ACETYL-6-CHLORO-5-(TRIFLUOROMETHYL)-1H-BENZIMIDAZOL-1-YL]PHENYL}ETHYL)AMINO]CARBONYL}-4-METHYLBENZENESULFONAMIDE], the melting point came to 225 °C.

The compound `CCc1nc2c(Cl)nc(C)cc2n1-c1ccc(CCNC(=O)NS(=O)(=O)c2ccc(C)cc2)cc1` displayed a melting point of 163 °C.

Turning to `CCc1nc2cc(Cl)c(Cl)nc2n1-c1ccc(CCNC(=O)NS(=O)(=O)c2ccc(C)cc2)cc1`, the melting point was in the range of 188 to 189 °C.

For the compound `CCc1nc2cc(NS(C)(=O)=O)c(Cl)cc2n1-c1ccc(CCNC(=O)NS(=O)(=O)c2ccc(C)cc2)cc1`, the melting point lay in the range of 101 to 123 °C.

Consider `CCc1nc2cc(C(F)(F)F)c(Cl)cc2n1-c1ccc(CCOC(=O)NS(=O)(=O)c2ccccn2)cc1`, for which the melting point fell in the range of 127 to 130 °C.

For the compound `CCc1nc2cc(C)c(Cl)nc2n1-c1ccc(CCNC(=O)NS(=O)(=O)c2ccc(C)cc2)cc1` [Example 38, 5-CHLORO-2-ETHYL-6-METHYL-3-(4-{2-[({[(4-METHYLPHENYL)SULFONYL]AMINO}CARBONYL)AMINO]ETHYL}PHENYL)-3H-IMIDAZO[4,5-b]PYRIDINE], the melting point lay within 205 to 206 °C.

In the case of `CCc1nc2cc(S(C)(=O)=O)c(Cl)cc2n1-c1ccc(CCNC(=O)NS(=O)(=O)c2ccc(C)cc2)cc1`, the melting point is 105 to 118 °C.

Turning to `CCc1nc2cc(COC)c(Cl)cc2n1-c1ccc(CCNC(=O)NS(=O)(=O)c2ccc(C)cc2)cc1` [Example 338, N-({[2-(4-{6-CHLORO-2-ETHYL-5-[(METHYLOXY)METHYL]-1H-BENZIMIDAZOL-1-YL}PHENYL)ETHYL]AMINO}CARBONYL)-4-METHYLBENZENSULFONAMIDE], the melting point was 134.6 °C.

In the case of `CCc1nc2c(C)cc(C)nc2n1-c1ccc(CCNC(=O)NS(=O)(=O)c2cc3ccccc3s2)cc1`, the melting point was in the range of 128 to 130 °C.

Compound `CCc1nc2cc(C(N)=O)c(Cl)cc2n1-c1ccc(CCNC(=O)NS(=O)(=O)c2ccc(C)cc2)cc1` yielded a melting point of 152 to 163 °C.

With `CCc1nc2cc(C(F)(F)F)c(Cl)cc2n1-c1ccc(C[C@H](C)NC(=O)NS(=O)(=O)c2ccc(C)cc2)cc1` [Example 254, N-{[((1S)-2-{4-[6-CHLORO-2-ETHYL-5-(TRIFLUOROMETHYL)-1H-BENZIMIDAZOL-1-YL]PHENYL}-1-METHYLETHYL)AMINO]CARBONYL}-4-METHYLBENZENESULFONAMIDE], the melting point lay in the range of 141 to 143 °C.

Take `CCc1nc2cc(C(C)O)ccc2n1-c1ccc(CCNC(=O)NS(=O)(=O)c2ccc(C)cc2)cc1` (stereo not drawn) [Example 345, N-{[(2-{4-[2-ETHYL-5-(1-HYDROXYETHYL)-1H -BENZIMIDAZOL-1-YL]PHENYL}ETHYL)AMINO]CARBONYL}-4-METHYLBENZENESULFONAMIDE]: the melting point came out at 190 °C.

Turning to `CCc1nc2cc(C(=O)NC)c(Cl)cc2n1-c1ccc(CCNC(=O)NS(=O)(=O)c2ccc(C)cc2)cc1` [Example 333, 6-CHLORO-2-ETHYL-N-METHYL-1-(4-{2-[({[(4-METHYLPHENYL)SULFONYL]AMINO}CARBONYL)AMINO]ETHYL}PHENYL)-1H-BENZIMIDAZOLE-5-CARBOXAMIDE], the melting point lay in the range of 122 to 135 °C.
